Reference: PMC5315738 (Clinical Pharmacokinetics, 2016)
Where two headings read alike, the source gives them in different places.

Legend:
human serum albumin = details: 45 g/L albumin, in vitro; cited from earlier work
[1] = cited from earlier work
[2] = type: in vivo; details: human, plasma, oral
HER2 = details: HER2, cell-free; cited from earlier work
ErbB4 = details: ErbB4, cell-free; cited from earlier work
[3] = system: EGFR, HER2, ErbB4 phosphorylation and ErbB3 transphosphorylation; details: wide variety of cell lines; cited from earlier work
P-gp [4] = details: read-out: inhibition constant (K i), digoxin transport; cited from earlier work
P-gp [5] = details: Caco-2 monolayers and human P-gp-expressing LLC-PK1 cells; cited from earlier work
BCRP = details: in vitro; cited from earlier work
[6] = system: OATP, OAT and OCT drug transporters; details: transfected HEK293 cell lines; cited from earlier work
[7] = physiological pH range of 1–7.5; cited from earlier work
[8] = cited from earlier work; remark: listed apart in the source
[9] = cited from earlier work; remark: listed apart in the source
[10] = system: cytochrome P450 (CYP) isoenzymes; details: human hepatocytes and human liver microsomes; ref Boehringer Ingelheim unpublished data, 26; cited from earlier work
[11] = cited from earlier work; remark: listed apart in the source
[12] = minipigs, cited from earlier work
[13] = mouse; ref Boehringer Ingelheim unpublished data, 25, 28; cited from earlier work
[14] = rabbit; ref Boehringer Ingelheim unpublished data, 25, 28; cited from earlier work
[15] = all animal species (rabbits, rats, minipigs and mice), 0.05–0.5 μM; cited from earlier work
[16] = in vitro and in vivo toxicology studies; cited from earlier work
[17] = cited from earlier work; for V z/F, gMean / gMean terminal half-life: 10–100 mg doses
[18] = PopPK, cited from earlier work
[19] = after a high-fat, high-caloric meal; cited from earlier work
[20] = human; cited from earlier work
[21] = cited from earlier work; remark: listed apart in the source
[22] = cited from earlier work; remark: listed apart in the source
[23] = cited from earlier work; remark: listed apart in the source
[24] = a P-gp substrate; cited from earlier work
[25] = cited from earlier work; remark: listed apart in the source
[26] = LUX-Lung 3, cited from earlier work
[27] = afatinib 20 mg, ritonavir 200 mg twice daily administered 1 h before afatinib, healthy subjects

CN(C)C/C=C/C(=O)Nc1cc2c(Nc3ccc(F)c(Cl)c3)ncnc2cc1O[C@H]1CCOC1 [afatinib dimaleate]
binding to isolated human serum albumin (human serum albumin): 79.6%
dose recovered in the urine ([1]; within 216 h after oral dose of 15 mg [14C]-radiolabelled afatinib dimaleate): 4.29%
dose recovered in the faeces ([1]; within 312 h after oral dose of 15 mg [14C]-radiolabelled afatinib dimaleate): 85.4%

CN(C)CC=CC(=O)Nc1cc2c(Nc3ccc(F)c(Cl)c3)ncnc2cc1O[C@H]1CCOC1 [afatinib, N-[4-[(3-chloro-4-fluorophenyl)amino]-7-[[(3S)-tetrahydro-3-furanyl]oxy]-6-quinazolinyl]-4-(dimethylamino)-2-butenamide]
half-life [2]: ~2220 min
potency to inhibit kinase (HER2): nanomolar potency
potency to inhibit kinase (ErbB4): nanomolar potency
potency of inhibition of phosphorylation in cells [3]: low nanomolar range
Ki (P-gp [4]): 3.4 µM
substrate of the efflux transporter P-gp (P-gp [5]): P-gp substrate
substrate and inhibitor of the efflux transporter BCRP (BCRP): substrate and inhibitor
in vitro transport of afatinib by OATP, OAT, OCT [6]: no relevant in vitro transport
solubility [7]: highly soluble
passive permeability through cell membranes [8]: high passive permeability
BCS class [9]: BCS class 1 or 3
potential to inhibit or induce CYP isoenzymes [10]: low potential to inhibit or induce
excretion of unchanged parent compound ([11]; rat, ref Boehringer Ingelheim unpublished data, 25, 28): > 50%
volume of distribution ([11]; rats, intravenous dosing): 16.2 L/kg
volume of distribution ([12]; intravenous dosing): 12.4 L/kg
excretion of unchanged parent compound ([12]; ref Boehringer Ingelheim unpublished data, 25, 28): > 72%
excretion of unchanged parent compound [13]: > 60%
excretion of unchanged parent compound [14]: > 87%
Mean plasma protein binding [15]: > 92%
genotoxicity [16]: no evidence of genotoxicity
time to achieve steady-state ([17]; once-daily dosing): ≤ 8 days
V z/F, gMean ([17]; single doses): 1940 L
gMean terminal half-life ([17]; single doses): 21 h
Overall drug clearance (CL/F), gMean ([17]; single doses): 1050 mL/min
V z/F, gMean ([17]; steady state): 2770 L
gMean terminal half-life ([17]; steady state): 37 h
Overall drug clearance (CL/F), gMean ([17]; steady state): 898 mL/min
increase in exposure for CLCR 43 mL/min ([18]; 2.5th percentile): 27.8%
increase in exposure in female patients ([18]; accounting for all other covariate effects): 15%
decrease in exposure for food intake ([18]; food intake less than 3 h before or less than 1 h after afatinib administration): 26%
reduction of AUC∞ by food [19]: ~39%
reduction of C max by food [19]: approximately 50%
plasma protein bound [20]: approximately 95%
urinary excretion of afatinib-related radioactivity ([1]; ADME study): < 5%
unchanged drug excreted in urine ([1]; approximate): approximately 5%
effect of renal impairment on plasma protein binding [21]: no effect
increase in AUC in patients with severe renal impairment ([21]; severe renal impairment): approximately 50%
effect of hepatic impairment on plasma protein binding [22]: no effect
increase in afatinib exposure (AUC∞) by ritonavir [23, 27]: 48%
increase in afatinib exposure (C max) by ritonavir [23, 27]: 39%
change in afatinib exposure by ritonavir ([23]; afatinib 40 mg, ritonavir taken concomitantly or 6 h after afatinib): did not relevantly change
change in exposure on concomitant administration with sirolimus [24]: did not result in a clinically relevant change in exposure
decrease of mean time-matched QTcF between baseline and day 14 ([25]; afatinib 50 mg, over 1–24 h following administration, non-significant): 0.3 ms
proarrhythmic potential ([25]; dose of 50 mg): does not have proarrhythmic potential
interpatient variability in exposure (gCV) ([26]; day 1 of cycle three): 67%
interpatient variability in exposure (gCV) ([26]; day 1 of cycle two): 85%
